Experiments:
[1] = system: other Bcl2 family members (Bax, Bcl2, Bcl-XL, Bcl-w and Mcl-1); experiment: Competitive fluorescence polarization (FP) assay, other Bcl2 family members; assay type: binding, human
Text: To confirm the binding of BKA-073 with Bak, we first conducted a competitive fluorescence polarization (FP) assay using purified human Bak protein, fluorescent Bak BH3 domain peptide, and BKA-073 as described, [37]-[40]. […] There are multiple amino acid differences in the BH3 domains between Bak and other Bcl2 family members, which helps to explain why BKA-073 only binds to Bak but not to other Bcl2 family members (i.e. Bax, Bcl2, Bcl-XL, Bcl-w and Mcl-1). In addition to the FP assay, isothermal titration calorimetry (ITC) was also employed to measure Bak/BKA-073 binding. […] In addition to human Bak/BKA-073 binding, we measured mouse Bak/BKA-073 binding using ITC.
(1 x 10^5 cells) was transferred to a 5 ml culture tube, followed by the addition of 5 μl of FITC Annexin V and 5 μl propidium iodide (PI). […] Samples were analyzed by flow cytometry (BD FACSCantoTMII, BD Biosciences, San Jose, CA). ∆% cell death was calculated with the formula: (% cell death treated - % cell death non-treated) as described […]
Fluorescence polarization (FP) assay
Fluorescence polarization assay was carried out as described previously. […] The FP values (in millipolarization units) were measured using a fluorescence microplate reader at 485/530 nm (Gemini XPS, Molecular Devices). Data analysis and inhibit ory constant (Ki) value was determined by GraphPad prism software as described. […]

DMS114 xenografts = experiment: SCLC DMS114 xenografts, tumor growth; assay type: in vivo, Nu/Nu nude mice; conditions: 15mg/kg/d i.p., 2-4 weeks
Method: Six-week-old female Nu/Nu nude mice were purchased from Envigo (Indianapolis, IN) and housed under pathogen-free conditions in microisolator cages. The animal propagation protocol was approved by the Emory Institutional Animal Care and Use Committee (IACUC) and the Emory Animal Ethics Committee. 3×10^6 lung cancer cells were injected into subcutaneous tissue in the flank region of nude mice. The tumors were allowed to grow to an average volume of 150~200 mm^3 prior to initiation of therapy as previously described, [29]. Patient-derived xenografts (PDXs, TKO-002 and TKO-005) were established as part of an IRB-approved phase II co-clinical trial of arsenic trioxide in patients with relapsed SCLC who had failed standard platinum-based chemotherapy. Tumor samples were obtained by image-guided biopsy and were directly implanted into Nu/Nu nude mice without intervening propagation in plastic culture plates. Direct serial propagation of growing tumor occurred for up to 5 generations. The animal propagation protocol was approved by the Emory IACUC and the Emory Animal Ethics Committee. Mice with SCLC and NSCLC xenografts or PDXs were treated with BKA-073 intraperitoneally (i.p.) or venetoclax orally as indicated. During treatment, tumor volume (V) was measured by caliper measurements once every two days as described previously. Mice were euthanized by CO2 inhalation at the end of treatment. […]

SMILES: COc1ccc2nc3ccccc3c(NCCNCC(C)O)c2c1 (centres unmarked) [BKA-073]
- binding affinity with other Bcl2 family members [1]: very low binding affinity
- tumor growth (DMS114 xenografts): potently suppressed tumor growth
